Publication PMC9775652, “Concomitant Administration of Red Ginseng Extract with Lactic Acid Bacteria Increases the Plasma Concentration of Deglycosylated Ginsenosides in Healthy Human Subjects” (Biomolecules, 2022)

Target: T1, P-gp (Homo sapiens, UniProt P08183)
T1 construct: host or cells: LLC-PK1-P-gp cells (passage no. 25–28)
Assay: Transport of ginsenosides in P-gp-overexpressing LLC-PK1-P-gp cells
Type: in vitro ADME

T1 sequence (P08183 whole entry): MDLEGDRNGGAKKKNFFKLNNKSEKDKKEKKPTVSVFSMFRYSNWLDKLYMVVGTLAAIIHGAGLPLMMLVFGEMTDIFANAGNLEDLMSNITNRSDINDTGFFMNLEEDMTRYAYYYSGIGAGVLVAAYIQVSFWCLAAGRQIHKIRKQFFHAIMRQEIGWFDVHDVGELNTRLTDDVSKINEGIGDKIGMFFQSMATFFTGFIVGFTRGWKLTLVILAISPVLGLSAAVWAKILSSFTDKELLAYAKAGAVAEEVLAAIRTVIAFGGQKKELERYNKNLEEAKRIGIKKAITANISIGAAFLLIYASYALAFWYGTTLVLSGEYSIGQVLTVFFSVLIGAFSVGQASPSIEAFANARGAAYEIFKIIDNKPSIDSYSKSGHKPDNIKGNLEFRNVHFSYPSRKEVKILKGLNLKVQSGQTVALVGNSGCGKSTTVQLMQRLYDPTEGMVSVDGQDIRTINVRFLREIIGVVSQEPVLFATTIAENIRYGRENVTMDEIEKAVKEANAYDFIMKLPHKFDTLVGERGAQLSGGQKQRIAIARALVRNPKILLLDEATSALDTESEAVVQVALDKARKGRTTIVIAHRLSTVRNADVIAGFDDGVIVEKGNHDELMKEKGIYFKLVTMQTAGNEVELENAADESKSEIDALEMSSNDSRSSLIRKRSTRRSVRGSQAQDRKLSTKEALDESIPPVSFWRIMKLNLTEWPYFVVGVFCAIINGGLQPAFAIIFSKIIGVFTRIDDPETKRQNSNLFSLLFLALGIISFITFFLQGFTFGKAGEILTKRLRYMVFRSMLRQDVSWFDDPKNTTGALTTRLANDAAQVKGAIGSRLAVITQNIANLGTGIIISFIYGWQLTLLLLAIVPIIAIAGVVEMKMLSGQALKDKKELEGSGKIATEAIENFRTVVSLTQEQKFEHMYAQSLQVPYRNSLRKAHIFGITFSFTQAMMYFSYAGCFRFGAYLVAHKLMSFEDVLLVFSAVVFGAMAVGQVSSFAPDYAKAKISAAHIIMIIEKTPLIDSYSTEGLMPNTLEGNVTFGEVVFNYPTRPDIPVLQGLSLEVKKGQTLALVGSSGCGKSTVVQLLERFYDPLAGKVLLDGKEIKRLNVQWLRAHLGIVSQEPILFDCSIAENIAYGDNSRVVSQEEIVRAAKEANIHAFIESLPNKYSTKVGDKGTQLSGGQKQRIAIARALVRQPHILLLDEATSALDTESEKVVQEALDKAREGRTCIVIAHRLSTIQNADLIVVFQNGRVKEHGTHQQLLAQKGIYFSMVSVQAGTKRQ

## CC(C)=CCC[C@](C)(O)[C@H]1CC[C@]2(C)[C@@H]1[C@H](O)C[C@@H]1[C@@]3(C)CC[C@H](O[C@@H]4O[C@H](CO)[C@@H](O)[C@H](O)[C@H]4O)C(C)(C)[C@@H]3CC[C@]12C [GRh2, ginsenoside Rh2]
P-gp-mediated B to A transport in LLC-PK1-P-gp cells
  CLint (intrinsic clearance): 502 µL/min
pig, LLC-PK1, LLC-PK1-P-gp cells, 20 μM, B to A Papp divided by A to B Papp, read-out: ER
  efflux ratio at 20 μM: 18
pig, LLC-PK1-P-gp cells, 20 μM, mean ± SD, n = 3, read-out: A to B permeability
  Papp A→B at 20 μM: 0.08 ± 0.01 ×10⁻⁶ cm/s
pig, LLC-PK1-P-gp cells, 20 μM, mean ± SD, n = 3, read-out: B to A permeability
  Papp B→A at 20 μM: 1.39 ± 0.13 ×10⁻⁶ cm/s
